{"source": "patent US9260417B2", "about": "“Therapeutic methods and compositions involving allosteric kinase inhibition” (AMITECH THERAPEUTIC SOLUTIONS, INC., priority 2010, dated 2016)", "key": {"AMPK-alpha1": {"biological_target": "AMPK-alpha1 (Homo sapiens (Human), UniProt Q13131)", "assay": "KINOMEscan competitive binding assay", "conditions": "10 uM", "source_text": "(§1) In vitro kinase screen and competitive binding assay. Sorafenib as well as test compounds were submitted to Invitrogen and screened using their SelectScreen™ Profiling Service."}, "ARK5": {"biological_target": "ARK5 (Homo sapiens (Human), UniProt O60285)", "assay": "KINOMEscan competitive binding assay", "conditions": "10 uM", "source_text": "as §1"}, "AXL": {"biological_target": "AXL (Homo sapiens (Human), UniProt P30530)", "assay": "KINOMEscan competitive binding assay", "conditions": "10 uM", "source_text": "as §1"}, "BRAF(V600E)": {"biological_target": "BRAF(V600E) (Homo sapiens (Human), UniProt P15056, V600E)", "sequence (P15056 457-717 V600E)": "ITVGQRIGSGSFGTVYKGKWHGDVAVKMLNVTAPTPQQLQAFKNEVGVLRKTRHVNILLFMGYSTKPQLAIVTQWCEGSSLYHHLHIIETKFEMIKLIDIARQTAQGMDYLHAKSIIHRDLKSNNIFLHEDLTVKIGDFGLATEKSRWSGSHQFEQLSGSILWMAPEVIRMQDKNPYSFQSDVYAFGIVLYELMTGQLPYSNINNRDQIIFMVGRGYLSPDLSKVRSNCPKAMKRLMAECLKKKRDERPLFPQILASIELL", "assay": "KINOMEscan competitive binding assay", "conditions": "10 uM", "source_text": "as §1"}, "CDK2": {"biological_target": "CDK2 (Homo sapiens (Human), UniProt P24941)", "assay": "KINOMEscan competitive binding assay", "conditions": "10 uM", "source_text": "as §1"}, "CDK3": {"biological_target": "CDK3 (Homo sapiens (Human), UniProt Q00526)", "assay": "KINOMEscan competitive binding assay", "conditions": "10 uM", "source_text": "as §1"}, "CDK5": {"biological_target": "CDK5 (Homo sapiens (Human), UniProt Q00535)", "sequence (Q00535 whole entry)": "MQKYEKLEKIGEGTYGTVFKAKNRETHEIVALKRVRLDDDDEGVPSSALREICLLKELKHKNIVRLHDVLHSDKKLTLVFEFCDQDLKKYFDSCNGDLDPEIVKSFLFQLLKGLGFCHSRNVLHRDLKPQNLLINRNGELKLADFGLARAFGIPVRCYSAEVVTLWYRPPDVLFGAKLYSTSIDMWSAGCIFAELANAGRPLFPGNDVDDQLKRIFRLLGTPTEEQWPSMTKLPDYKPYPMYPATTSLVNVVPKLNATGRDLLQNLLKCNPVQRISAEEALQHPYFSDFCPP", "assay": "KINOMEscan competitive binding assay", "conditions": "10 uM", "source_text": "as §1"}, "CDK7": {"biological_target": "CDK7 (Homo sapiens (Human), UniProt P50613)", "sequence (P50613 whole entry)": "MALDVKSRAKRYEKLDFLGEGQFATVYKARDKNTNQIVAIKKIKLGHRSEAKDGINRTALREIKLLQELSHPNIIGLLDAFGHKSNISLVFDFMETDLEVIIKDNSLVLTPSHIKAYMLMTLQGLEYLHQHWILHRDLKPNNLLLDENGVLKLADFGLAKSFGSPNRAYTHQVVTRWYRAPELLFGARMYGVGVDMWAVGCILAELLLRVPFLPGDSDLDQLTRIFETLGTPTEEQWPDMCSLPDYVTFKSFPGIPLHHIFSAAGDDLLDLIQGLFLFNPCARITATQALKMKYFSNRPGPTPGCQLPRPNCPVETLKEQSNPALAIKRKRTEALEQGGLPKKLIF", "assay": "KINOMEscan competitive binding assay", "conditions": "10 uM", "source_text": "as §1"}, "CDK9": {"biological_target": "CDK9 (Homo sapiens (Human), UniProt P50750)", "assay": "KINOMEscan competitive binding assay", "conditions": "10 uM", "source_text": "as §1"}, "EPHA2": {"biological_target": "EPHA2 (Homo sapiens (Human), UniProt P29317)", "sequence (P29317 24-976)": "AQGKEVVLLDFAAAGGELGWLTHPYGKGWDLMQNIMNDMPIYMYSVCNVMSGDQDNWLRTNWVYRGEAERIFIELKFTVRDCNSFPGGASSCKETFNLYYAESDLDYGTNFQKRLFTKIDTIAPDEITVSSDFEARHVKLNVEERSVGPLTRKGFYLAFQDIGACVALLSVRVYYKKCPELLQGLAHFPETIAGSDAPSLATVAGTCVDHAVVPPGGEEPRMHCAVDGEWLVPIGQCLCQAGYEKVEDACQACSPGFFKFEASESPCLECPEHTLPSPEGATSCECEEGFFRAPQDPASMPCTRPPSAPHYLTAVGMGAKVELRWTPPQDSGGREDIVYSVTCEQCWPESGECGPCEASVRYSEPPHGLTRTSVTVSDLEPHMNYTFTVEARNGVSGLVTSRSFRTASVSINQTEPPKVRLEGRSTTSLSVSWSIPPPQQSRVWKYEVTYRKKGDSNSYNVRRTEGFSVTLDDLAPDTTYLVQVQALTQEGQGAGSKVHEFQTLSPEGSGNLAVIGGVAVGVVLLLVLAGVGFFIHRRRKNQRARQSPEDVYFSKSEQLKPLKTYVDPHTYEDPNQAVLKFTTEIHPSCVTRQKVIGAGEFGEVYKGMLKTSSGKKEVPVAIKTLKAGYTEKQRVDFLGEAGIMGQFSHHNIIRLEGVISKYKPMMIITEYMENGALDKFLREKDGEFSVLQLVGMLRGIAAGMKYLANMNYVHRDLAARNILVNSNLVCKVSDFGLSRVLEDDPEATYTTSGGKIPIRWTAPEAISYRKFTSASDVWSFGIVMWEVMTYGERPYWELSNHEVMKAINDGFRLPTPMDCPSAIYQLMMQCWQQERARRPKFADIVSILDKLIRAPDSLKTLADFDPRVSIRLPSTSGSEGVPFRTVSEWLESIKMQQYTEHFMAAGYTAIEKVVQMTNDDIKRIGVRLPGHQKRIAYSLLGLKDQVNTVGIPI", "assay": "KINOMEscan competitive binding assay", "conditions": "10 uM", "source_text": "as §1"}, "ERK2": {"biological_target": "ERK2 (Homo sapiens (Human), UniProt P28482)", "sequence (P28482 whole entry)": "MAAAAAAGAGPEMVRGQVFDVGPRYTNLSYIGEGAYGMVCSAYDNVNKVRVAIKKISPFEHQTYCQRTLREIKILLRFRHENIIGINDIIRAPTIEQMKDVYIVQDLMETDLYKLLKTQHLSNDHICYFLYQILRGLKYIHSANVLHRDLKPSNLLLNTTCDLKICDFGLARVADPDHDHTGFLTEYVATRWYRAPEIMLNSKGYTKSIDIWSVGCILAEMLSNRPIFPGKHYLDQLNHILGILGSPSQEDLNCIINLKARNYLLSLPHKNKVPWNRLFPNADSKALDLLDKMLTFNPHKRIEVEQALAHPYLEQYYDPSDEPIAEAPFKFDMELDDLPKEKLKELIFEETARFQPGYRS", "assay": "KINOMEscan competitive binding assay", "conditions": "10 uM", "source_text": "as §1"}, "FAK": {"biological_target": "FAK (Homo sapiens (Human), UniProt Q05397)", "assay": "KINOMEscan competitive binding assay", "conditions": "10 uM", "source_text": "as §1"}, "FLT3(ITD)": {"system": "FLT3(ITD)", "assay": "KINOMEscan competitive binding assay", "conditions": "10 uM", "source_text": "as §1"}, "FLT4": {"biological_target": "FLT4 (Homo sapiens (Human), UniProt P35916)", "assay": "KINOMEscan competitive binding assay", "conditions": "10 uM", "source_text": "as §1"}, "GSK3B": {"biological_target": "GSK3B (Homo sapiens (Human), UniProt P49841)", "assay": "KINOMEscan competitive binding assay", "conditions": "10 uM", "source_text": "as §1"}, "JNK1": {"biological_target": "JNK1 (Homo sapiens (Human), UniProt P45983)", "assay": "KINOMEscan competitive binding assay", "conditions": "10 uM", "source_text": "as §1"}, "KIT(D616V)": {"system": "KIT(D616V)", "assay": "KINOMEscan competitive binding assay", "conditions": "10 uM", "source_text": "as §1"}, "KIT(V559D)": {"biological_target": "KIT(V559D) (Homo sapiens (Human), UniProt P10721, V559D)", "sequence (P10721 26-976 V559D)": "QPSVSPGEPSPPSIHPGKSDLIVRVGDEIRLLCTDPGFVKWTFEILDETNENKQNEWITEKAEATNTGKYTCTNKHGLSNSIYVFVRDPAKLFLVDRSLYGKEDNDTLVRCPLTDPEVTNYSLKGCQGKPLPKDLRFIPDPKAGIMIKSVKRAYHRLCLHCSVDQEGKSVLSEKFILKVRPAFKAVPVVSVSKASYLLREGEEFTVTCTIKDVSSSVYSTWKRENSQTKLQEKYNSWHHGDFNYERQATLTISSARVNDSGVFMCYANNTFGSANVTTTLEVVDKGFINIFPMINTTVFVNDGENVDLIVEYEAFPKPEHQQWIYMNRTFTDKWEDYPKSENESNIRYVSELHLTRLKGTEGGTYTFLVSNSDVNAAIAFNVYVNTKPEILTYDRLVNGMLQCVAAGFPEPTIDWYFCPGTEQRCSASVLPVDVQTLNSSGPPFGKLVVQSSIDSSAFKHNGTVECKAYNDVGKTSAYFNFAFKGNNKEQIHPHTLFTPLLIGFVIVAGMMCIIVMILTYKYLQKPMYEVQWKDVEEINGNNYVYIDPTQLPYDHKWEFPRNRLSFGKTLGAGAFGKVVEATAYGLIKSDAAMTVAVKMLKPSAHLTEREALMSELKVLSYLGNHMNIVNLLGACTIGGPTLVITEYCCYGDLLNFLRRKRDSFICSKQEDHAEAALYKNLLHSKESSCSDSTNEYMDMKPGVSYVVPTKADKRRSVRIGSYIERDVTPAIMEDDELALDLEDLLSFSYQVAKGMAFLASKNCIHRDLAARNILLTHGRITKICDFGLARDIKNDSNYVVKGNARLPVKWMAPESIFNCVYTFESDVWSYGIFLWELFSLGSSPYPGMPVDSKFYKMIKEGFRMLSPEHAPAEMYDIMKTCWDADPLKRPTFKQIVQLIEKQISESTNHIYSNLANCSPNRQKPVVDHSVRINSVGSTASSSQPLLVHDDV", "assay": "KINOMEscan competitive binding assay", "conditions": "10 uM", "source_text": "as §1"}, "KIT(V559D, T670I)": {"biological_target": "KIT(V559D, T670I) (Homo sapiens (Human), UniProt P10721, T670I/V559D)", "sequence (P10721 26-976 V559D/T670I)": "as the sequence (P10721 26-976 V559D) above, with T645I counted along it", "assay": "KINOMEscan competitive binding assay", "conditions": "10 uM", "source_text": "as §1"}, "LKB1": {"biological_target": "LKB1 (Homo sapiens (Human), UniProt Q15831)", "sequence (Q15831 whole entry)": "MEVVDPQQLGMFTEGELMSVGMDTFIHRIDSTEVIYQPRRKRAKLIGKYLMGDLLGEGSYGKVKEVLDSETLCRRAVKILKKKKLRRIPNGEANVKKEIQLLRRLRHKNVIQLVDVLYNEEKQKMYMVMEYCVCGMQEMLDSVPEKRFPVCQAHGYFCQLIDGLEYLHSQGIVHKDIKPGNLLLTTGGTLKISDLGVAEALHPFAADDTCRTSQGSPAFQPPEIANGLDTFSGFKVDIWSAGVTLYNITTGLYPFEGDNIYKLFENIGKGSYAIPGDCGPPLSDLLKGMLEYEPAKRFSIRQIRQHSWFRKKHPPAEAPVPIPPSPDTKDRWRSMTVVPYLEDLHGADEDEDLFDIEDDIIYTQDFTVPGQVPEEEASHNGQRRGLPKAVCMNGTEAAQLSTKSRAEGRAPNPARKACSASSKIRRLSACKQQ", "assay": "KINOMEscan competitive binding assay", "conditions": "10 uM", "source_text": "as §1"}, "MEK1": {"biological_target": "MEK1 (Homo sapiens (Human), UniProt Q02750)", "assay": "KINOMEscan competitive binding assay", "conditions": "10 uM", "source_text": "as §1"}, "RIOK3": {"biological_target": "RIOK3 (Homo sapiens (Human), UniProt O14730)", "sequence (O14730 whole entry)": "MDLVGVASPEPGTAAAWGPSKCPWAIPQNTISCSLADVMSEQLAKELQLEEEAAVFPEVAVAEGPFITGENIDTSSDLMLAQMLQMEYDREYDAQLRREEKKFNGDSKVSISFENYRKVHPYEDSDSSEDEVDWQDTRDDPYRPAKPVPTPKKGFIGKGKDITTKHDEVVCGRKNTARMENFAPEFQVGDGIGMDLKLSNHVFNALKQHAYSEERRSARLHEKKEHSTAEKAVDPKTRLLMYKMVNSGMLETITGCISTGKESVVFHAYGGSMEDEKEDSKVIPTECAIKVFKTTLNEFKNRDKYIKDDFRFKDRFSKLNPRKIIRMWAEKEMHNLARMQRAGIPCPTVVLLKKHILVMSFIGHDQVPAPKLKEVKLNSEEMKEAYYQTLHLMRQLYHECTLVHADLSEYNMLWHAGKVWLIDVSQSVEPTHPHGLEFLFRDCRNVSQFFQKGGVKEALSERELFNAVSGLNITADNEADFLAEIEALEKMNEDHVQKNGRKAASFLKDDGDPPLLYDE", "assay": "KINOMEscan competitive binding assay", "conditions": "10 uM", "source_text": "as §1"}, "RIPK1": {"biological_target": "RIPK1 (Homo sapiens (Human), UniProt Q13546)", "assay": "KINOMEscan competitive binding assay", "conditions": "10 uM", "source_text": "as §1"}, "TIE1": {"biological_target": "TIE1 (Homo sapiens (Human), UniProt P35590)", "assay": "KINOMEscan competitive binding assay", "conditions": "10 uM", "source_text": "as §1"}, "PKAC-alpha": {"biological_target": "PKAC-alpha (Homo sapiens (Human), UniProt P17612)", "assay": "KINOMEscan competitive binding assay", "conditions": "10 uM"}, "PRKCE": {"biological_target": "PRKCE (Homo sapiens (Human), UniProt Q02156)", "sequence (Q02156 whole entry)": "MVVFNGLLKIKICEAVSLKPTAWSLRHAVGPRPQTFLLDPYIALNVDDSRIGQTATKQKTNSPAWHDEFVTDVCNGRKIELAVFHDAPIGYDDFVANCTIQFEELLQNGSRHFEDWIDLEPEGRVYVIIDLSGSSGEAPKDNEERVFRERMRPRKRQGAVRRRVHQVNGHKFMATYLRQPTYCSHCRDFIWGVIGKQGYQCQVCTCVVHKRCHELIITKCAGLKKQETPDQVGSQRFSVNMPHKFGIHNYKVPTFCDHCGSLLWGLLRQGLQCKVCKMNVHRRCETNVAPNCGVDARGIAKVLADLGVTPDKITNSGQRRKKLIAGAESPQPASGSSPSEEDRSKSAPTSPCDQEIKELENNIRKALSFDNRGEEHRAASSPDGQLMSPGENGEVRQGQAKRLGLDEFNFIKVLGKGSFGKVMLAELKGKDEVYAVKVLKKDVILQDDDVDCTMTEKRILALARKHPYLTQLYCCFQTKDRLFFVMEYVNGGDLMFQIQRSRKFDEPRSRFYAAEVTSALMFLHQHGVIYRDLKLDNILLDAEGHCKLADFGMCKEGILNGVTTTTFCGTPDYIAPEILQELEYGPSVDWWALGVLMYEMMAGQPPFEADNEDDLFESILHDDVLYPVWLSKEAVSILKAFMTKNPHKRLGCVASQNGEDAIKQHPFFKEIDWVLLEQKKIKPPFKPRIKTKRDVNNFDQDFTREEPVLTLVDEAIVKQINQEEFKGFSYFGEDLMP", "assay": "KINOMEscan competitive binding assay", "conditions": "10 uM"}, "SN12C-RFP renal cells": {"system": "SN12C-RFP renal cells", "assay": "Orthotopic renal cell carcinoma model", "assay_type": "in vivo, mice", "conditions": "100 mg/kg, po, qd; day 26 (vehicle 132±39 mg)", "source_text": "(FIG. 10A) Real-time fluorescent imaging of SN12C-RFP renal cells orthotopically injected into […] of nu/nu mice. […] Drug treatments were started 7 days after orthotopic injection and tumor growth was visualized every 7 days by whole animal imaging. The images shown are of 4 mice in the vehicle and drug treated groups on day 26. Scale bar=10 mm. (FIG. 10B) At the end of the study, both the left tumor bearing kidney and right kidney were extracted and weighed.\nMale Nu/Nu mice were anesthetized with an intraperitoneal injection of 50 mg/kg ketamine and […] medetomidine. A small incision was made along the left flank of the mice and the kidney was exposed. A 27-gauge insulin syringe was used for orthotopic injection of the SN12C-RFP cells. One million tumor cells in 20 μl of a 1:1 PBS:Matrigel mixture were injected into the lower pole of the kidney just below the renal subcapsule. […]\nTo test the effects of 6 on tumor growth after oral administration, human SN12C renal cells expressing RFP were injected into the kidney capsule of nude mice and tumors were allowed to develop for 7 days. […] Suppression of tumor growth was readily observed in those animals treated with 6 (FIG. 10A). On day 26, the kidneys were excised from these animals and the weight due to tumor was calculated by subtracting the weight of the normal kidney from the weight of the tumor-bearing kidney for each animal."}}}
{"smiles": "CSc1nc(N)cc(Oc2ccc(-c3nnc(Nc4cccc(C(F)(F)F)c4)[nH]3)cc2)n1", "note": "[Compound 6]", "values": [{"measurement": "% Control", "setting": "AMPK-alpha1", "value": 72, "unit": "%"}, {"measurement": "% Control", "setting": "ARK5", "value": 70, "unit": "%"}, {"measurement": "% Control", "setting": "AXL", "value": 87, "unit": "%"}, {"measurement": "% Control", "setting": "BRAF(V600E)", "value": 98, "unit": "%"}, {"measurement": "% Control", "setting": "CDK2", "value": 87, "unit": "%"}, {"measurement": "% Control", "setting": "CDK3", "value": 91, "unit": "%"}, {"measurement": "% Control", "setting": "CDK5", "value": 88, "unit": "%"}, {"measurement": "% Control", "setting": "CDK7", "value": 97, "unit": "%"}, {"measurement": "% Control", "setting": "CDK9", "value": 100, "unit": "%"}, {"measurement": "% Control", "setting": "EPHA2", "value": 100, "unit": "%"}, {"measurement": "% Control", "setting": "ERK2", "value": 90, "unit": "%"}, {"measurement": "% Control", "setting": "FAK", "value": 100, "unit": "%"}, {"measurement": "% Control", "setting": "FLT3(ITD)", "value": 3.1, "unit": "%"}, {"measurement": "% Control", "setting": "FLT4", "value": 100, "unit": "%"}, {"measurement": "% Control", "setting": "GSK3B", "value": 90, "unit": "%"}, {"measurement": "% Control", "setting": "JNK1", "value": 98, "unit": "%"}, {"measurement": "% Control", "setting": "KIT(D616V)", "value": 76, "unit": "%"}, {"measurement": "% Control", "setting": "KIT(V559D)", "value": 0.1, "unit": "%"}, {"measurement": "% Control", "setting": "KIT(V559D, T670I)", "value": 56, "unit": "%"}, {"measurement": "% Control", "setting": "LKB1", "value": 100, "unit": "%"}, {"measurement": "% Control", "setting": "MEK1", "value": 84, "unit": "%"}, {"measurement": "% Control", "setting": "RIOK3", "value": 100, "unit": "%"}, {"measurement": "% Control", "setting": "RIPK1", "value": 84, "unit": "%"}, {"measurement": "% Control", "setting": "TIE1", "value": 76, "unit": "%"}, {"measurement": "% Control", "setting": "PKAC-alpha", "value": 100, "unit": "%"}, {"measurement": "% Control", "setting": "PRKCE", "value": 91, "unit": "%"}, {"measurement": "average tumor burden (tumor-bearing kidney minus normal kidney weight)", "setting": "SN12C-RFP renal cells", "value": "49 ± 18", "unit": "mg"}]}
